Results: patent publication US12398120B2, “Substituted hydantoinamides as ADAMTS7 antagonists” (BAYER AKTIENGESELLSCHAFT, priority 2019, dated 2025)

Target: ADAMTS4 (Homo sapiens (Human), UniProt O75173)
Test: Selectivity assay for ADAMTS-7 modulators: ADAMTS4 (FRET substrate)
Assay type: biochemical
Settings: ADAMTS4 (R&D 4307-AD) 50 nM, substrate Dabcyl-EEVKAKVQPY-Glu(Edans)-NH2 1 μM, 120 min, 32° C.
Procedure, shortened: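 Human ADAMTS4 with compound in DMSO, or DMSO control; reaction started by adding FRET substrate in reaction buffer. Fluorescence increase measured at substrate-specific wavelengths. IC50 derived from % inhibition of enzyme activity versus compound concentration.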

ADAMTS4, sequence (O75173 213-685): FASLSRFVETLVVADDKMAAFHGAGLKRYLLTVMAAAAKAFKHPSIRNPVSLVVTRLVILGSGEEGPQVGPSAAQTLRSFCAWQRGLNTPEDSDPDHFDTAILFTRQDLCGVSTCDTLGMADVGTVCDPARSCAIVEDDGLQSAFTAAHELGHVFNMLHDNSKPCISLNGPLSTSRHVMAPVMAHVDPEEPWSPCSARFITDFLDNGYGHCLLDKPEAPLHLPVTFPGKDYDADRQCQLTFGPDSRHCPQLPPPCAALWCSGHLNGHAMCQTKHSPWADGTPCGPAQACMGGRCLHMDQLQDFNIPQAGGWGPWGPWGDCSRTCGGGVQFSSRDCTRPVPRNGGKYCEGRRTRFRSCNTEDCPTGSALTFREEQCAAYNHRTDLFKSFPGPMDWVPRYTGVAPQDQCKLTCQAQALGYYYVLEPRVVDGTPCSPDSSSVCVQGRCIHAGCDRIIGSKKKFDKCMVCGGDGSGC

Compound | IC50 [µM]
O=C1NC(=O)[C@](CNC(=O)c2cc(F)ccc2-c2ccc(Cl)c(Cl)c2)(C2CC2)N1 [Example 234, 3′,4′-Dichloro-N-{[(4R)-4-Cyclopropyl-2,5-Dioxoimidazolidin-4-Yl]Methyl}-4-Fluoro[1,1′-Biphenyl]-2-Carboxamide] | 16
Cc1ccc(-c2ccccc2C(=O)NCC2(C3CCC3)NC(=O)NC2=O)cc1 (stereo not drawn) [Example 236, Ent-N-[(4-Cyclobutyl-2,5-Dioxoimidazolidin-4-Yl)Methyl]-4′-Methyl[Biphenyl]-2-Carboxamide] | 15
O=C1NC(=O)C(CNC(=O)c2ccccc2-c2ccc(C(F)(F)F)cc2)(c2ncccc2C(F)(F)F)N1 (stereo not drawn) [Example 244, Ent-N-({2,5-Dioxo-4-[3-(Trifluoromethyl)Pyridin-2-Yl]Imidazolidin-4-Yl}Methyl)-4′-(Trifluoromethyl)[Biphenyl]-2-Carboxamide] | 10
O=C1NC(=O)C(CNC(=O)c2ccccc2-c2ccc(C(F)(F)F)cc2)(c2ccnn2C(F)F)N1 (stereo not drawn) [Example 261, Ent-N-({4-[1-(Difluoromethyl)-1H-Pyrazol-5-Yl]-2,5-Dioxoimidazolidin-4-Yl}Methyl)-4′-(Trifluoromethyl)[Biphenyl]-2-Carboxamide] | > 50
O=C1NC(=O)C(CNC(=O)c2ccccc2-c2ccc(C(F)(F)F)cc2)(c2ncsc2C(F)(F)F)N1 (stereo not drawn) [Example 264, Ent-N-({2,5-Dioxo-4-[5-(Trifluoromethyl)-1,3-Thiazol-4-Yl]Imidazolidin-4-Yl}Methyl)-4′-(Trifluoromethyl)[Biphenyl]-2-Carboxamide] | 11
O=C1NC(=O)C(CNC(=O)c2cc(F)ccc2-c2ccc(C(F)(F)F)cc2)(c2ncsc2C(F)(F)F)N1 (stereo not drawn) [Example 266, Ent-N-({2,5-Dioxo-4-[5-(Trifluoromethyl)-1,3-Thiazol-4-Yl]Imidazolidin-4-Yl}Methyl)-4-Fluoro-4′-(Trifluoromethyl)[Biphenyl]-2-Carboxamide] | 10
O=C1NC(=O)C(CNC(=O)c2ccc(F)cc2-c2ccc(C(F)(F)F)cc2)(c2ncsc2C(F)(F)F)N1 (stereo not drawn) [Example 268, Ent-N-({2,5-Dioxo-4-[5-(Trifluoromethyl)-1,3-Thiazol-4-Yl]Imidazolidin-4-Yl}Methyl)-5-Fluoro-4′-(Trifluoromethyl)[Biphenyl]-2-Carboxamide] | 27
O=C1NC(=O)C(CNC(=O)c2ccccc2-c2ccc(C(F)(F)F)cc2)(c2ncsc2C2CC2)N1 (stereo not drawn) [Example 271, Ent-N-{[4-(5-Cyclopropyl-1,3-Thiazol-4-Yl)-2,5-Dioxoimidazolidin-4-Yl]Methyl}-4′-(Trifluoromethyl)[Biphenyl]-2-Carboxamide] | 2.7
O=C1NC(=O)C(CNC(=O)c2ccc(F)cc2-c2ccc(C(F)(F)F)cc2)(c2ncsc2C2CC2)N1 (stereo not drawn) [Example 273, Ent-N-{[4-(5-Cyclopropyl-1,3-Thiazol-4-Yl)-2,5-Dioxoimidazolidin-4-Yl]Methyl}-5-Fluoro-4′-(Trifluoromethyl)[Biphenyl]-2-Carboxamide] | 26.8
O=C1NC(=O)C(CNC(=O)c2ccccc2-c2ccc(C(F)(F)F)nc2)(c2ncsc2C2CC2)N1 (stereo not drawn) [Example 274, Ent-N-{[4-(5-Cyclopropyl-1,3-Thiazol-4-Yl)-2,5-Dioxoimidazolidin-4-Yl]Methyl}-2-[6-(Trifluoromethyl)Pyridin-3-Yl]Benzamide] | 3.8
O=C1NC(=O)C(CNC(=O)c2ccccc2-c2ccc(C(F)(F)F)nc2)(c2cscn2)N1 (stereo not drawn) [Example 277, Ent-N-{[2,5-Dioxo-4-(1,3-Thiazol-4-Yl)Imidazolidin-4-Yl]Methyl}-2-[6-(Trifluoromethyl)Pyridin-3-Yl]Benzamide] | 16
O=C1NC(=O)C(CNC(=O)c2ccc(F)c(F)c2-c2ccc(C(F)(F)F)cc2)(c2cscn2)N1 (stereo not drawn) [Example 278, Ent-N-{[2,5-Dioxo-4-(1,3-Thiazol-4-Yl)Imidazolidin-4-Yl]Methyl}-5,6-Difluoro-4′-(Trifluoromethyl)[Biphenyl]-2-Carboxamide] | 8.6
O=C1NC(=O)C(CNC(=O)c2ccccc2-c2ccc(C(F)(F)F)cc2)(C2(Cl)CC2)N1 (stereo not drawn) [Example 280, Ent-N-{[4-(1-Chlorocyclopropyl)-2,5-Dioxoimidazolidin-4-Yl]Methyl}-4′-(Trifluoromethyl)[Biphenyl]-2-Carboxamide] | 7.1
O=C1NC(=O)C(CNC(=O)c2ccc(F)cc2-c2ccc(C(F)(F)F)cc2)(c2ccnn2C(F)F)N1 (stereo not drawn) [Example 296, Ent-N-({4-[1-(Difluoromethyl)-1H-Pyrazol-5-Yl]-2,5-Dioxoimidazolidin-4-Yl}Methyl)-5-Fluoro-4′-(Trifluoromethyl)[Biphenyl]-2-Carboxamide] | 9.5
Cn1cncc1C1(CNC(=O)c2ccccc2-c2ccc(C(F)(F)F)cc2)NC(=O)NC1=O (stereo not drawn) [Example 297, Ent-N-{[4-(1-Methyl-1H-Imidazol-5-Yl)-2,5-Dioxoimidazolidin-4-Yl]Methyl}-4′-(Trifluoromethyl)[Biphenyl]-2-Carboxamide] | 4.1
Cc1cc(C2(CNC(=O)c3ccccc3-c3ccc(C(F)(F)F)cc3)NC(=O)NC2=O)n(C)n1 (stereo not drawn) [Example 302, Ent-N-{[4-(1,3-Dimethyl-1H-Pyrazol-5-Yl)-2,5-Dioxoimidazolidin-4-Yl]Methyl}-4′-(Trifluoromethyl)[Biphenyl]-2-Carboxamide] | 7.6

Second part, the compound after the results:

IC50 [µM] | Compound
6.5 | O=C1NC(=O)[C@](CNC(=O)c2cc(F)ccc2-c2ccc(Cl)cc2)(C2CC2)N1 [Example 233, 4′-Chloro-N-{[(4R)-4-Cyclopropyl-2,5-Dioxoimidazolidin-4-Yl]Methyl}-4-Fluoro[1,1′-Biphenyl]-2-Carboxamide]
7.83 | O=C1NC(=O)[C@](CNC(=O)c2cccc(F)c2-c2ccc(C(F)(F)F)cc2)(C2CC2)N1 [Example 235, N-{[(4R)-4-Cyclopropyl-2,5-Dioxoimidazolidin-4-Yl]Methyl}-6-Fluoro-4′-(Trifluoromethyl)[1,1′-Biphenyl]-2-Carboxamide]
> 50 | O=C1NC(=O)C(CNC(=O)c2ccccc2-c2ccc(C(F)(F)F)cc2)(C2CCC2)N1 (stereo not drawn) [Example 237, Ent-N-[(4-Cyclobutyl-2,5-Dioxoimidazolidin-4-Yl)Methyl]-4′-(Trifluoromethyl)[Biphenyl]-2-Carboxamide]
2 | Cc1ccc(C(=O)NCC2(C3CCC3)NC(=O)NC2=O)c(-c2ccc(C(F)(F)F)cc2)c1 (stereo not drawn) [Example 238, Ent-N-[(4-Cyclobutyl-2,5-Dioxoimidazolidin-4-Yl)Methyl]-5-Methyl-4′-(Trifluoromethyl)[Biphenyl]-2-Carboxamide]
> 50 | O=C1NC(=O)C(CNC(=O)c2ccc(F)cc2-c2ccc(C(F)(F)F)cc2)(C2CCC2)N1 (stereo not drawn) [Example 239, Ent-N-[(4-Cyclobutyl-2,5-Dioxoimidazolidin-4-Yl)Methyl]-5-Fluoro-4′-(Trifluoromethyl)[Biphenyl]-2-Carboxamide]
> 50 | O=C1NC(=O)C(CNC(=O)c2ccccc2-c2ccc(C(F)(F)F)cc2)(C2CC(F)(F)C2)N1 (stereo not drawn) [Example 248, Ent-N-{[4-(3,3-Difluorocyclobutyl)-2,5-Dioxoimidazolidin-4-Yl]Methyl}-4′-(Trifluoromethyl)[Biphenyl]-2-Carboxamide]
10 | O=C1NC(=O)C(CNC(=O)c2ccccc2-c2ccc(C(F)(F)F)cc2)(C2(F)CC2)N1 (stereo not drawn) [Example 255, Ent-N-{[4-(1-Fluorocyclopropyl)-2,5-Dioxoimidazolidin-4-Yl]Methyl}-4′-(Trifluoromethyl)[Biphenyl]-2-Carboxamide]
21 | O=C1NC(=O)[C@](CNC(=O)c2ccc(F)cc2-c2ccc(C(F)(F)F)nc2)(C2CC2)N1 [Example 290, N-{[(4R)-4-Cyclopropyl-2,5-Dioxoimidazolidin-4-Yl]Methyl}-4-Fluoro-2-[6-(Trifluoromethyl)Pyridin-3-Yl]Benzamide]
